Results on 4 compounds are retold here after ChEMBL document CHEMBL1201862, “PubChem BioAssay data set” (2004).

Common to all, as to experiment: NCI tumour cell line growth inhibition, 48 h
Assay [1] has as its system ACHN.
For assay [2], the system named is SK-MEL-28.
Assay [3] deals with NCI/ADR-RES.
Assay [4] concerns SK-MEL-2.
The test system of assay [5] is IGROV-1.
Assay [6] deals with MOLT-4.
Assay [7] has as its system SF-268.
The test system of assay [8] is DU-145.
For assay [9], the system named is U-251.
Assay [10] concerns HCC 2998.
The subject of assay [11] is SN12C.
Assay [12] relates to HL-60.
In assay [13] the test system is NCI-H460.
For assay [14], the system named is SR.
For assay [15], the system named is UACC-257.
The test system of assay [16] is SK-MEL-5.
Assay [17] deals with NCI-H226.
Assay [18] deals with HOP-62.
Assay [19] deals with HCT-116.
In assay [20] the test system is SF-295.

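In this assay, cells in 96-well plates receive the compound at five concentrations for 48 hours. Endpoints are linearly interpolated between the surrounding concentrations. Abbreviation: GI50, concentration required for 50% inhibition of growth.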 The source made the active and inactive calls. Cut-off read from the data, not from the text of the source: active = GI50 up to about 1.1 µM and inactive = higher. Bounds are passed on as bounds.

For `CC(=O)[C@]1(C)[C@H](C)O[C@](C)(CO)[C@H]1O[Si](C)(C)c1ccccc1`, the GI50 in assay [1] was 46.7 µM (inactive); in [2], 87.1 µM (inactive); in assay [3], 37.3 µM (inactive); in [4], > 100 µM (inactive); in [5], 17.1 µM (inactive); in [6], 34.6 µM (inactive). The GI50 in assay [7] is 54.5 µM (inactive); in [8], 57.1 µM (inactive); in assay [9] it was > 100 µM (inactive); in [10], 31.5 µM (inactive); in assay [11], 51.6 µM (inactive); in [12], 18.4 µM (inactive). The GI50 in [13] was 51.2 µM (inactive); in assay [14] it was 31.8 µM (inactive); in assay [15], 23 µM (inactive); in [16] it was 33.9 µM (inactive); in assay [17], 67.9 µM (inactive); in [18], > 100 µM (inactive). Also, the GI50 is 38.4 µM (inactive) in assay [19] and 53 µM (inactive) in assay [20].
For `Fc1cc(C2=C[C@H](c3ccc4c(c3)OCO4)NC(=S)N2)c(Cl)cc1Cl`, the GI50 in assay [1] is 28.8 µM (inactive); in assay [2], 40.3 µM (inactive); in assay [3] it was 51.6 µM (inactive); in [4], 20.9 µM (inactive); in assay [5] it was 27.4 µM (inactive); in assay [6], 23.4 µM (inactive). The GI50 in [7] is 45.7 µM (inactive); in assay [8], 49 µM (inactive); in assay [9] it was 22.9 µM (inactive); in assay [10], 23.2 µM (inactive); in assay [11], 27.4 µM (inactive); in assay [12], 0.0303 µM (active). Besides, the GI50 is 25.5 µM (inactive) in assay [13]; 31.9 µM (inactive) in assay [14]; 26.3 µM (inactive) in [15]; 10.3 µM (inactive) in assay [16]; 59.2 µM (inactive) in assay [17]; 39.5 µM (inactive) in assay [18]. The GI50 in [19] was 27.5 µM (inactive); in assay [20], 31.9 µM (inactive).
Turning to `CNc1ccc([S+]([O-])Nc2ccccc2)cc1` (stereo not given), the GI50 was 84.7 µM (inactive) in assay [1]; > 100 µM (inactive) in assay [2]; 65.6 µM (inactive) in [3]; 86.3 µM (inactive) in assay [4]; 41.6 µM (inactive) in assay [5]; 52.6 µM (inactive) in assay [6]. Moreover, the GI50 was 25.9 µM (inactive) in [7]; > 100 µM (inactive) in assay [8]; 36.2 µM (inactive) in assay [9]; 23.1 µM (inactive) in assay [10]; > 100 µM (inactive) in [11]; 26.1 µM (inactive) in assay [12]. The GI50 in assay [13] is 55.8 µM (inactive); in [14] it was 38.2 µM (inactive); in assay [15], 41.1 µM (inactive); in [16], 25.8 µM (inactive); in assay [17], 21.2 µM (inactive); in assay [18], 58.3 µM (inactive). Moreover, the GI50 in assay [19] is 40.2 µM (inactive); in assay [20] it was 41.5 µM (inactive).
For the compound `O=C1O/C(=C(/Cl)c2c3ccccc3cc3ccccc23)c2ccccc21`, the GI50 in assay [1] was 24.5 µM (inactive); in [2], 40.7 µM (inactive); in assay [3], 35.2 µM (inactive); in assay [4] it was 15.8 µM (inactive); in assay [5], 22.5 µM (inactive); in assay [6], 7.53 µM (inactive). Besides, the GI50 in [7] was 30.5 µM (inactive); in assay [8] it was 45.4 µM (inactive); in assay [9] it was 30.5 µM (inactive); in [10], 30.9 µM (inactive); in [11], 26.1 µM (inactive); in assay [12], 4.1 µM (inactive). Also, the GI50 in assay [13] was 26.5 µM (inactive); in assay [14], 4.58 µM (inactive); in assay [15] it was 33.2 µM (inactive); in assay [16], 15.4 µM (inactive); in assay [17], 26.7 µM (inactive); in assay [18], 29.1 µM (inactive). For the same compound, the GI50 in assay [19] was 3.03 µM (inactive); in [20] it was 47 µM (inactive).
